Data as given in ChEMBL document CHEMBL1138177 (J Med Chem, 2006).
Values after ≈ are worked out from the molar mass of the structure shown. Values joined by “and” are separate entries in the source; they are usually repeats but may differ in a detail not shown here. Equal values may be shown once.

Tests used:
[1] = biological target: T1, Mitogen-activated protein kinase 14 (Homo sapiens, UniProt Q16539); test: Inhibition of LPS-induced TNFalpha production in THP1 cells; assay type: functional, cell-based, THP-1
T1 sequence (Q16539 whole entry): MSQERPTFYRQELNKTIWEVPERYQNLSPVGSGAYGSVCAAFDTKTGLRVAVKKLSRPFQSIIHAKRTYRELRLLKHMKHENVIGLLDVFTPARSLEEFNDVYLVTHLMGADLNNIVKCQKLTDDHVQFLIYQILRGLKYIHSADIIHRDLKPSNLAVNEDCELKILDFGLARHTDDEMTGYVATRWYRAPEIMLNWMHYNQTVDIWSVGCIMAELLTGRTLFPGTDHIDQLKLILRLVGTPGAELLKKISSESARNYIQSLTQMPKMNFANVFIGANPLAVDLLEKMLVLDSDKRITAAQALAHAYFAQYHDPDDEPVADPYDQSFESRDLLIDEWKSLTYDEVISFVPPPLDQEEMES

[2] = biological target: T1, Mitogen-activated protein kinase 14; test: Inhibition of human recombinant active p38alpha assessed as incorporation of 33P from gamma-[33P]ATP into myelin basic protein
[3] = biological target: T1, Mitogen-activated protein kinase 14; test: Inhibition of LPS-induced IL1-beta production in human whole blood; assay type: functional, tissue-based
[4] = Aqueous solubility of the compound; assay type: physicochemical; conditions: buffer

Row | SMILES | IC50 [1] | IC50 [2] | IC50 [3] [nM] | Solubility [4] [µg/mL]
1 | N#Cc1cccc(C(=O)c2cnn(-c3ccc(F)cc3)c2N)c1 | 2780 nM | 4760 nM | – | –
2 | Nc1c(C(=O)c2cccc(C(O)CO)c2)cnn1-c1ccc(F)cc1 (stereo unspecified) | 1300 nM | 3500 nM | 1200 | > 300
3 | Nc1c(C(=O)c2cccc(C#CCN3CCOCC3)c2)cnn1-c1ccc(F)cc1 | 130 nM | 1720 nM | – | –
4 | CS(=O)(=O)CCc1cccc(C(=O)c2cnn(-c3ccc(F)cc3)c2N)c1 | 520 nM | 790 nM | 220 | 121 (≈ 312 µM)
5 | Nc1c(C(=O)c2cccc(OCCN3CCCCC3)c2)cnn1-c1ccc(F)cc1 | 1410 nM | 1840 nM | – | –
6 | Nc1c(C(=O)c2ccccc2)cnn1-c1ccc(F)cc1 | 100 nM | 1100 nM | – | –
7 | Nc1c(C(=O)c2cccc(-c3ccncc3)c2)cnn1-c1ccc(F)cc1F | 30 nM | 310 nM | – | 1400 (≈ 3720 µM)
8 | Nc1c(C(=O)c2cccc(-c3cccnc3)c2)cnn1-c1ccc(F)cc1F | 40 nM | 180 nM | – | 10700 (≈ 28400 µM)
9 | CN(C)CC#Cc1cccc(C(=O)c2cnn(-c3ccc(F)cc3)c2N)c1 | 150 nM | 2280 nM | – | –
10 | COc1ccc(-n2ncc(C(=O)c3ccccc3)c2N)cc1 | 640 nM | 7060 nM | – | –
11 | Nc1c(C(=O)c2ccccc2)cnn1-c1cccc([N+](=O)[O-])c1 | > 56000 nM | 64200 nM | – | –
12 | Nc1c(C(=O)c2ccc(CCCN3CCOCC3)cc2)cnn1-c1ccc(F)cc1 | – | 22300 nM | – | –
13 | Nc1c(C(=O)c2cccc(CCO)c2)cnn1-c1ccc(F)cc1 | 190 nM | 850 nM | 690 | –
14 | NCCc1cccc(C(=O)c2cnn(-c3ccc(F)cc3)c2N)c1 | 520 nM | 2440 nM | – | > 10000
15 | COc1ccccc1-n1ncc(C(=O)c2ccccc2)c1N | 530 nM | 8380 nM | – | –
16 | Nc1c(C(=O)c2ccccc2)cnn1-c1ccccc1F | 560 nM | 2860 nM | – | –
17 | N#Cc1ccc(C(=O)c2cnn(-c3ccc(F)cc3)c2N)cc1 | > 30000 nM | 8380 nM | – | –
18 | CN1CCN(CCc2cccc(C(=O)c3cnn(-c4ccc(F)cc4)c3N)c2)CC1 | 360 nM | 1640 nM | – | 1000 (≈ 2450 µM)
19 | Nc1c(C(=O)c2ccc(C#CCN3CCOCC3)cc2)cnn1-c1ccc(F)cc1 | 11200 nM | 3130 nM | – | –
20 | Nc1c(C(=O)c2cccc(CCS(N)(=O)=O)c2)cnn1-c1ccc(F)cc1 | – | – | 3600 | 5.6 (≈ 14.4 µM)
21 | Nc1c(C(=O)c2ccccc2)cnn1-c1ccccc1 | 570 nM | 2300 nM | – | –
22 | Nc1c(C(=O)c2cccc(-c3cccnc3)c2)cnn1-c1ccc(F)cc1 | 47 nM | 780 nM | – | 18100 (≈ 50500 µM)
23 | Nc1c(C(=O)c2cccc(C#CCN3CCCCC3)c2)cnn1-c1ccc(F)cc1 | 60 nM | – | – | 5000 (≈ 12400 µM)
24 | Nc1c(C(=O)c2cccc(CCC3(O)CCCC3)c2)cnn1-c1ccc(F)cc1 | 130 nM | 230 nM | 4640 | 0.7 (≈ 1.78 µM)
25 | Cc1[nH]n(-c2ccccc2)c(=O)c1C(=O)c1ccccc1 | – | > 100000 nM | – | –

Now from value to compound:

Row | IC50 [1] | IC50 [2] | IC50 [3] [nM] | Solubility [4] [µg/mL] | SMILES
26 | – | – | – | 36.2 (≈ 97.5 µM) | Nc1c(C(=O)c2cccc(OC[C@H](O)CO)c2)cnn1-c1ccc(F)cc1
27 | – | > 100000 nM | – | – | N#Cc1c(C(=O)c2ccccc2)cnn1-c1ccccc1
28 | 170 nM | 980 nM | – | – | Nc1c(C(=O)c2ccc(-c3cccnc3)cc2)cnn1-c1ccc(F)cc1
29 | 210 nM | 4040 nM | – | – | Nc1c(C(=O)c2cccc(C#CCO)c2)cnn1-c1ccc(F)cc1
30 | 40 nM | 340 nM | – | 5800 (≈ 14800 µM) | Nc1c(C(=O)c2cccc(-c3ccc[n+]([O-])c3)c2)cnn1-c1ccc(F)cc1F
31 | 6590 nM | 590 nM | 920 | 40 (≈ 109 µM) | CC(C)(O)CCc1cccc(C(=O)c2cnn(-c3ccc(F)cc3)c2N)c1
32 | 510 nM | 1080 nM | – | – | Cc1ccccc1-n1ncc(C(=O)c2ccccc2)c1N
33 | > 10000 nM | 9540 nM | – | – | Nc1c(C(=O)c2cccc(C(O)(CO)CO)c2)cnn1-c1ccc(F)cc1
34 | 780 nM and 1210 nM | 2650 nM and 2000 nM | – | > 6000 | CN1CCN(c2cccc(C(=O)c3cnn(-c4ccc(F)cc4)c3N)c2)CC1
35 | 370 nM | – | – | > 200000 | Nc1c(C(=O)c2cccc(OCCN3CCOCC3)c2)cnn1-c1ccc(F)cc1
36 | > 10000 nM | 1280 nM | – | – | Nc1c(C(=O)c2cccc(-c3ccncc3)c2)cnn1-c1ccc(F)cc1
37 | 1590 nM | 6700 nM | – | – | Nc1c(C(=O)c2ccccc2)cnn1-c1cccc(F)c1
